Measured values: patent publication US20060183221A1, “Method for neural differentiation of embryonic stem cells using protease passaging techniques” (priority 2003, published 2006)

Tests used:
SSEA4 selected HESCs [1] = assay: Neural differentiation of SSEA4 selected bulk passaged HESCs as serum free embryoid bodies with or without MEDII and S18, seeded and immunostained; format: cell-based, human
Procedure: Cultures were treated with or without 10 μM S18 from day 13 to day 17. After S18 treatment, serum free embryoid bodies were washed several times and cultured further until day 18. Serum free embryoid bodies were cut into pieces to seed down to polyornithine/laminin coated slides.
In the presence of MEDII, a consistently high proportion of the culture contained TH+ neurons, with the background of non-neural regions that was negative for the neuronal marker βIII-Tubulin typically lower than 10%. It was not determined whether the effect of MEDII induced more efficient neuralization or inhibited the generation of non-neural cell types. […] This proportion was determined by analysis of double staining of neural extensions for βIII-Tubulin and TH (FIG. 18), and overlaying Hoffman images with TH immunofluorescence (FIG. 19). The increase in the proportion of TH+ neurons in MEDII treated differentiations appeared to be due to the overall increase in neuronal differentiation, rather than an effect on the proportion of neurons that were dopaminergic, because the proportions of neurons that were TH+ in differentiations not exposed to MEDII was equally high. Another marker of DA cells, VMAT, was expressed in similarly high proportions of cells within the sfEBM cultures. TH+/VMAT−, TH−/VMAT+ and TH+/VMAT+ cells were observed (FIG. 20), possibly indicating temporal variability in the induction of expression of these markers prior to being co-expressed.

SSEA4 selected HESCs [2] = conditions: 4 ng/ml FGF2 and 100 μM proline
Procedure: Essentially serum free embryoid bodies were generated from bulk passaged monolayer HESC colonies as described in Example 6, in the presence of 4 ng/ml FGF2 and 100 μM Proline, or in 4 ng/ml FGF2 with MEDII conditioned medium as a positive control.
Serum free embryoid bodies were cultured in suspension for 17 days, and were cut into pieces and seeded onto polyornithine/laminin coated slides at day 10 or 17. The explants were cultured on slides for 5 days prior to fixation at day 15 or 22, for immunostaining with anti-βIII-Tubulin and anti-Tyrosine Hydroxylase antibodies.

SSEA4 selected HESCs [3] = test system: SSEA4 selected HESCs
Source text: Essentially serum free embryoid bodies were generated from bulk passaged monolayer HESC colonies as described in Example 6, in the presence of the media set out below.

SSEA4 selected HESCs [4] = assay: Differentiation of SSEA4 selected HESCs as serum free embryoid bodies in differing media formulations (cytospin counts, immunostaining); format: cell-based, human; conditions: L-proline conditions
Procedure: Serum free embryoid bodies were cultured in suspension for 3 weeks. Morphological differences were apparent between the cultures. […] Serum free embryoid bodies were cultured in suspension, and were cut into pieces, seeded onto polyornithine/laminin coated slides at day 21 and fixed at day 25. […] This was indicative that this differentiation protocol utilizes an intrinsic neural differentiation capacity of HESC, rather than exogenous neural inducing factors.
Cytospins of disaggregated serum free embryoid bodies were performed at day 21 to enable the counting of the proportion of βIII-Tubulin or TH positive cells generated in the different media formulations. […]
To count proportions of neurons in serum free embryoid bodies, cytospins were immunostained with anti-βIII-Tubulin (Sigma, #T8660) or mouse anti-TH monoclonal antibodies (PeIFreez Biologicals, #P80101-0), detected with alexa-488 conjugated anti-mouse secondary antibody and nuclei were stained with DAPI. Two color fluorescent images were taken under 10× magnification and merged, and double positive signals were scored as neuronal cell bodies, or TH+ neuronal cell bodies against the total nuclei count. A minimum of three randomly sampled fields and 250 or 100 nuclei for βIII-Tubulin or TH, respectively, were counted for each condition. […]

[5] = test system: differentiating mouse ES cells (ES-J1); assay: Apoptosis (TUNEL staining) in differentiating mouse ES cells incubated with ceramide analogs; format: cell-based; conditions: 15 hours with 75 μM S16 or S18, or 35 μM C2-ceramide
Procedure: In vitro neural differentiation of mouse ES cells (ES-J1, ES-D3) followed a serum deprivation protocol as described previously (Hancock, et al., 2000, Biochem. Biophys. Res. Commun. 271: 418-421). The differentiation stages are outlined in FIG. 2. Briefly, ES cells were grown on gamma-irradiated feeder fibroblasts for four days in Knockout DMEM/15% Knockout serum replacement, supplemented with ESGRO (LIF; Chemicon; Cat No. ESG1106) at a concentration of […] medium. ES cells were then grown for another four days on gelatin-coated bacterial culture dishes without a fibroblast feeder layer, and were then grown for three days in Knockout DMEM/15% heat-inactivated ES qualified Fetal Bovine Serum, supplemented with 10^3 units LIF per ml of medium. Upon trypsinization, ES cells were transferred to bacterial culture dishes without gelatin, and embryoid body (EB) formation was induced for four days in Knockout DMEM/10% heat-inactivated ES qualified FBS without LIF (EB4 stage). On the fifth day, floating and loosely attached EBs were rinsed off and transferred to tissue culture dishes. The EBs were allowed to attach to the tissue culture dish surface by incubation for another 24 hours in Knockout DMEM with 10% heat-inactivated ES qualified fetal bovine serum. Neural differentiation due to serum deprivation was induced by cultivation of the EBs for three days in DMEM/F12 (50/50), supplemented with 1×N2 (Invitrogen/Life Technologies; Cat No. 17502, dilution of 1: 100) but without serum (EB8 stage). Serum-deprived EBs were then trypsinized, plated on poly-L-ornithine/laminin-coated tissue culture dishes and grown for four days in DMEM/F12 (50/50), supplemented with N2 and 10 ng/ml FGF-2, but without serum. his incubation period is referred to as neuroprogenitor (NP) stage due to commitment of neuroepithelial precursor cells to neuroprogenitor cells. These cells have committed during the EB stages and were expanded during the NP stage. NPs grown for 48 hours upon replating of trypsinized EBs were referred to as the NP2 stage. On the fifth day of NP formation, the medium was changed to Neurobasal (Invitrogen/Life Technologies; Cat No. 21103-049), with 5% heat-inactivated FBS, and the cells were incubated for another seven days. During this time, NPs fully differentiate to glial cells and neurons. Cells cultured for 24 hours or 96 hours upon changing the medium were referred to as the D1 or D4 stage, respectively.
ES cells were cultured and differentiated to the EB4, EB8, NP2, or D4 stage following the protocol as described above. The ceramide analog S18 was dissolved in ethanol at a concentration of 100 mM and then added to the cells at a final concentration of 75 μM in medium. The cells at the EB8 stage were incubated for 48 hours in the presence of the ceramide analog and were then transplanted into mouse brains.
Differentiating ES cells were grown on cover slips and fixed with 4% paraformaldehyde in phosphate-buffered saline (PBS). Fixed cells were permeabilized with 0.5% Triton X-100 in PBS for 5 minutes at room temperature and unspecific binding sites were saturated by incubation with 3% ovalbumin in PBS for 1 hour at 37° C. The cover slips were then incubated with 5 μg/ml primary antibody (anti-ceramide clone 15B4 mouse IgM, Alexis; anti-PAR-4 rabbit IgG, Santa Cruz; anti-PCNA rabbit IgG, Santa Cruz; anti-nestin clone 401 rat IgG, BD Pharmingen) in 0.1% ovalbumin/PBS, followed by incubation with the appropriate fluorescence-labeled secondary antibody (5 μg/ml Alexa 546 conjugated anti-mouse IgG, Molecular Probes; Alexa 488 conjugated anti-rabbit IgG, Molecular Probes, Cy3 conjugated anti-mouse IgM, Jackson) for 2 hours at 37° C. The nuclei were stained by treatment with 2 μg/ml Hoechst 33258 in PBS for 30 minutes at room temperature. Apoptotic nuclei were stained using the fluorescein FragEL TUNEL assay (Oncogene) according to the manufacturer's instructions. […]

[6] = test system: Mouse neuroblastoma (F-11) cells; assay: Induction of apoptosis in mouse neuroblastoma cells (Hoechst 33258 staining of condensed nuclei); format: cell-based; conditions: 24 hours
Procedure: Mouse neuroblastoma (F-11) cells were incubated for 24 hours in 0.1, 0.2, 0.5, or 1.0 μM of laurylgallate (Aldrich). Apoptosis was determined by punctate staining of condensed nuclei with Hoechst 33258 (Sigma, […] medium for 30 minutes at room temperature).

FGF2: fibroblast growth factor 2 was tested, and the “area of seeded serum free embryoid body containing TH+ neurons” value (SSEA4 selected HESCs [1]; 10 μM S18 day 13 to 17, seeded day 18, fixed day 23) was 30-70% and the “proportion of neurons expressing TH” value (SSEA4 selected HESCs [1]; βIII-Tubulin/TH double staining, seeded day 18, fixed day 23) was “very high proportion”.
In the case of `O=C(O)[C@@H]1CCCN1` [proline, L-proline], the “seeded EB pieces that did not exhibit large networks of βIII-Tubulin+ cells” value (SSEA4 selected HESCs [2]) is reported as “less than 30%”, the “neurons generated that were dopaminergic (co-expressing βIII-Tubulin and TH)” value (SSEA4 selected HESCs [2]; day 22) is reported as “greater than 90%” and the “maintained in a proliferative state after proliferation of neural rosette structures” value (SSEA4 selected HESCs [3]; 50 μM L-proline) is reported as 34 weeks. For the same compound, the “maintained in a proliferative state in suspension culture after initial derivation” value (SSEA4 selected HESCs [3]; 50 μM L-proline) was “more than 7 weeks”, the “appearance of sfEBPs with low cell death and distinct neural rosette structures/folds” value (SSEA4 selected HESCs [3]; 50 μM Proline condition, around 3 weeks) was “noticeably enhanced” and the “TH+ neurons, of the cells in an embryoid body in suspension” value (SSEA4 selected HESCs [4]) was “greater than 50%”.
`CCCCCCCCCCCCC/C=C/[C@@H](O)[C@H](CO)NC(C)=O` [C2-ceramide, N-acetyl sphingosine, reference compound] showed a TUNEL stained cells ([5]; EB8 stage) of 45±10% and a TUNEL stained cells ([5]; NP2 stage) of 70±10%.
With `CCCCCCCCCCCCCCCC(=O)NC(CO)CO` [S16, N-(2-hydroxy-1-(hydroxymethyl)ethyl)-palmitoylamide] the TUNEL stained cells ([5]; EB8 stage) was 45±10% and the TUNEL stained cells ([5]; NP2 stage) was 70±10%.
For `CCCCCCCCCCCCOC(=O)c1cc(O)c(O)c(O)c1` [laurylgallate, n-dodecyl ester of 3,4,5-trihydroxybenzoic acid], the cells undergoing apoptosis ([6]; 0.5 μM) was 50% and the cells undergoing apoptosis ([6]; 1.0 μM) was 100%.
